This passage reports solubility in water results from US20260083727A1, “PHARMACEUTICAL FORMULATIONS OF NINTEDANIB FOR INTRAOCULAR USE” (Boehringer Ingelheim International GmbH, priority 2022, published 2026).

Molecules are shown by their SMILES.

A short description of this data set: Water solubility. Type of data set: physicochemical. Conditions: in words.

`COC(=O)c1ccc2c(c1)NC(=O)/C2=C(\Nc1ccc(N(C)C(=O)CN2CCN(C)CC2)cc1)c1ccccc1` [nintedanib (free base)]: the solubility in water result is listed as “very poor”.
